Columns and labels:
[1] = test system: Tyrosine-protein kinase ABL1 (Homo sapiens), P00519 [Y253F]; assay: Inhibition of phosphorylated ABL1 Y253F mutant (unknown origin) assessed as residual activity at 1000 nM by KINOMEscan analysis relative to control
[2] = target: T1, Mitogen-activated protein kinase kinase kinase 5 (Homo sapiens) (UniProt Q99683); assay: Inhibition of ASK1 (unknown origin) assessed as residual activity at 1000 nM by KINOMEscan analysis relative to control
T1 sequence (whole entry): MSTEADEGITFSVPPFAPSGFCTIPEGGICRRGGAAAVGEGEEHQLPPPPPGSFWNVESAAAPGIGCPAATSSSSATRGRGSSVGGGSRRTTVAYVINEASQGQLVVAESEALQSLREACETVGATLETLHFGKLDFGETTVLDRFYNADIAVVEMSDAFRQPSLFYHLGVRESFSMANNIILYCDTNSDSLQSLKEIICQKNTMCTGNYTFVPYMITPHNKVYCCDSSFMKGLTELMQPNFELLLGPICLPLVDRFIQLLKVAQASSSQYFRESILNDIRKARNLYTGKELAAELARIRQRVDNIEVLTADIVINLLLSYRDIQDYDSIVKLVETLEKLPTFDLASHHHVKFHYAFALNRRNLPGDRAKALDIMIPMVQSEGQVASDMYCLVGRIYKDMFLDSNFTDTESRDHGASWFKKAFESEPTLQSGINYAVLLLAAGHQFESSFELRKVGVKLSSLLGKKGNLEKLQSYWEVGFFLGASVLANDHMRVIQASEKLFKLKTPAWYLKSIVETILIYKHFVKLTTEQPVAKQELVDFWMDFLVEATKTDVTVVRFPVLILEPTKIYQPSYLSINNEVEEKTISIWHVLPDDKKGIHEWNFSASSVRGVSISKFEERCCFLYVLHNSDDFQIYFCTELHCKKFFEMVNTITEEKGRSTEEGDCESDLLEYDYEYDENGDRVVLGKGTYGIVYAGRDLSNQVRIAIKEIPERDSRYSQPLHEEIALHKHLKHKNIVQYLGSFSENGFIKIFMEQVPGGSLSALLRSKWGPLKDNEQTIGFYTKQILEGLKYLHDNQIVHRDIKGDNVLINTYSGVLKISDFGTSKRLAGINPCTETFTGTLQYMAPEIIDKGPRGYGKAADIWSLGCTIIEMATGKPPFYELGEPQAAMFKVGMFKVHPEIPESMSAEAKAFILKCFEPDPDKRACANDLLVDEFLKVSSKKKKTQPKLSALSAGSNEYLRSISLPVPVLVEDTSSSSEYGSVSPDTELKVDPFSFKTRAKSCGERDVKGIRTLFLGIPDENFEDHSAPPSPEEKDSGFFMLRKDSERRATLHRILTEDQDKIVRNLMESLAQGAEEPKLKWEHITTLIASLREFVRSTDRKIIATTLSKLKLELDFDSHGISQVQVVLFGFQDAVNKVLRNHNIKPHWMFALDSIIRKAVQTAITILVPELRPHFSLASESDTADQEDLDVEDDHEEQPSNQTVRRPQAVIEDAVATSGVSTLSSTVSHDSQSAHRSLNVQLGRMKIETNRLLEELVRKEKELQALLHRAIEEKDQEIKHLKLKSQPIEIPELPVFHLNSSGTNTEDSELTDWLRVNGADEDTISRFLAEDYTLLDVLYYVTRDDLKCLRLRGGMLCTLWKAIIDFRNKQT

[3] = target: Protein-tyrosine kinase 6 (Homo sapiens) (UniProt Q13882); assay: Inhibition of BRK (unknown origin) assessed as residual activity at 1000 nM by KINOMEscan analysis relative to control
[4] = target: T2, Ephrin type-B receptor 2 (Homo sapiens) (UniProt P29323); assay: Inhibition of EPHB2 (unknown origin) assessed as residual activity at 1000 nM by KINOMEscan analysis relative to control
T2 sequence (whole entry): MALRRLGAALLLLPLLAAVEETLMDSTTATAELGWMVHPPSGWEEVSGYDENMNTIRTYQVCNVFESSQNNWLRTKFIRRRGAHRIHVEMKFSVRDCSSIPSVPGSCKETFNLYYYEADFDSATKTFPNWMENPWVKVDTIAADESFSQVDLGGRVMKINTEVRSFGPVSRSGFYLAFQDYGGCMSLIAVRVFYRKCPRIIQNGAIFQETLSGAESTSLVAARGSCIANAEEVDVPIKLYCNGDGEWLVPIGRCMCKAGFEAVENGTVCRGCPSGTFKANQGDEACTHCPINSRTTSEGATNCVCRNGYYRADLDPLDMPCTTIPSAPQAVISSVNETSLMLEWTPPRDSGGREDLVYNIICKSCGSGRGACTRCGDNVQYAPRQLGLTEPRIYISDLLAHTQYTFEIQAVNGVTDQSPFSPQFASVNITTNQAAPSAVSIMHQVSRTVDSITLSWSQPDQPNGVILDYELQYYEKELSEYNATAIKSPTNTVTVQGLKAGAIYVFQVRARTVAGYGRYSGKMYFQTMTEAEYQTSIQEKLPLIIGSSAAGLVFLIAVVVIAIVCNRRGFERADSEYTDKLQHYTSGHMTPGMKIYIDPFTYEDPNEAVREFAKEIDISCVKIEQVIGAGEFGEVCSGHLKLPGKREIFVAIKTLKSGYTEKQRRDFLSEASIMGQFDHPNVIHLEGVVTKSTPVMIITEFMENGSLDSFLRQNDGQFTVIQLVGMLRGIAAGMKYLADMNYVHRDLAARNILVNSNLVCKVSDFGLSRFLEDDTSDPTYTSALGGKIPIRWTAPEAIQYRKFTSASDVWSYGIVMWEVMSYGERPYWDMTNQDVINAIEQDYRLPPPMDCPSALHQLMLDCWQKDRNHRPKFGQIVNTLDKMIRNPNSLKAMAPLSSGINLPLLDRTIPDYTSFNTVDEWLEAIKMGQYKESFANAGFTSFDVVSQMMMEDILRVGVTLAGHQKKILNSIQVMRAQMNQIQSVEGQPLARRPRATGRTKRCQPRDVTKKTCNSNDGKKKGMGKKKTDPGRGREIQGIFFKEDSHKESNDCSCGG

Sequence of Protein-tyrosine kinase 6 (Homo sapiens) (Q13882 whole entry, looked up): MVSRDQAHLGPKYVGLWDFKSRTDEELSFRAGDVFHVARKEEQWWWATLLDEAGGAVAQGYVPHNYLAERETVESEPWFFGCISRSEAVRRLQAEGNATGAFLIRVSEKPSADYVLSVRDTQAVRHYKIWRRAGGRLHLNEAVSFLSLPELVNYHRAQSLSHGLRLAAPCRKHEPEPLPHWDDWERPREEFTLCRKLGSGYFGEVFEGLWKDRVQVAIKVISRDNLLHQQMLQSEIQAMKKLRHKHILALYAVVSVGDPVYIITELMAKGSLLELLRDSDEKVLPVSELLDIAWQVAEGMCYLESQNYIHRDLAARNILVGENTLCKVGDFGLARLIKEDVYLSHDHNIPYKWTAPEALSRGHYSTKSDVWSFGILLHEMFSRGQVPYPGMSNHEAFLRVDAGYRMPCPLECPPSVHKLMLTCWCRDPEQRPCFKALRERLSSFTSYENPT

| Compound | Activity [1] [%] | Activity [2] [%] | Activity [3] [%] | Activity [4] [%] |
| --- | --- | --- | --- | --- |
| COc1cc2nc(C)nc(N[C@H](C)c3cccc(-c4cn[nH]c4)c3)c2cc1OC | 92 | 100 | 57 | 98 |
| COc1cc2ncnc(N[C@H](C)c3cccc4ccccc34)c2cc1OC | 79 | 76 | 100 | 94 |
